Measured values from paper PMC11620517, “Novel hydrazone compounds with broad-spectrum antiplasmodial activity and synergistic interactions with antimalarial drugs” (Antimicrobial Agents and Chemotherapy, 2024).
Values joined by “and” are separate entries in the source; they are usually repeats but may differ in a detail not shown here. Equal values may be shown once. Read-outs that look alike come from different tables or passages of the source.

Test system: P. falciparum oocyst formation in Anopheles stephensi mosquitoes
Test: P. falciparum oocyst inhibition assay (SMFA)
Assay type: in vivo, Plasmodium falciparum
Details: for Median (oocysts) / Median I % / Prevalence % / Prevalence I %: pooled from two representative experiments; for oocyst formation inhibition: midguts dissected 8 days after feeding
Experimental: As previously described, P. falciparum infections were performed using SMFA with NF54 gametocyte cultures diluted to 0.3% stage V gametocytemia ([62]). Infected blood (O+ human 45% hematocrit in serum) was offered to mosquitoes for 30 minutes, and engorged mosquitoes were maintained on a 10% corn syrup solution supplemented by four concentrations of CB compounds (1, 2.5, 5, and 10 µM) at […] ([63]), with DMSO serving as a control. Eight days post-infection, mosquito midguts were dissected and stained with 0.2% mercurochrome for 30 minutes, and oocysts were quantified under a light microscope ([63]).

[1] = 1 μM compound, P. falciparum midgut infection in An. stephensi mosquitoes
[2] = 1 μM compound, infection prevalence in mosquitoes
[3] = 2.5 μM compound, P. falciparum midgut infection in An. stephensi mosquitoes
[4] = 2.5 μM compound, infection prevalence in mosquitoes
[5] = 2.5 μM, single experiments, read-out: % inhibition (mean)
[6] = 2.5 μM, single experiments, read-out: % inhibition (median)
[7] = 5 μM compound, P. falciparum midgut infection in An. stephensi mosquitoes
[8] = 5 μM compound, infection prevalence in mosquitoes
[9] = 5 μM, single experiments, read-out: % inhibition (mean)
[10] = 10 μM compound, P. falciparum midgut infection in An. stephensi mosquitoes
[11] = 10 μM compound, infection prevalence in mosquitoes
[12] = 10 μM compound, oocyst number vs DMSO control, read-out: % inhibition (mean)
[13] = 10 μM compound, vs DMSO control, read-out: % inhibition (prevalence)
[14] = 10 μM, single experiments, read-out: % inhibition (prevalence)
[15] = 1 μM, single experiments, read-out: % inhibition (mean)
[16] = 1 μM, single experiments, read-out: % inhibition (median)
[17] = 5 μM, single experiments, read-out: % inhibition (median)
[18] = 10 μM, single experiments, read-out: % inhibition (mean)

`COc1cccc(/C=N/NC(=O)c2nc(-c3ccccc3)cc(-c3ccccc3)n2)c1O` [CB-41] was tested, and the “Median oocyst #” value (1 μM compound) was 45, the “Mean oocyst # excluding zeros (Range)” value [1] was 53 (0-136) and the Prevalence [2] was 85. For the same compound, the inhibition at 1 µM (1 μM compound, vs DMSO control, read-out: % inhibition (prevalence)) was 14%, the “Median (oocysts)” value (1 µM) was 45 and the “Median I %” value (1 µM) was 18%. The Prevalence % (1 µM) was 85%, the “Prevalence I %” value (1 µM) was 14% and the “Mean oocyst # excluding zeros (Range)” value (1 μM, single experiments) was 53 (0-136) and 77 (0-156). The “Median oocyst #” value (1 μM, single experiments) was 45 and 63, the “Median oocyst #” value (2.5 μM compound) was 44 and the “Mean oocyst # excluding zeros (Range)” value [3] was 51 (0-123). For the same compound, the Prevalence [4] was 83, the inhibition at 2.5 µM (2.5 μM compound, oocyst number vs DMSO control, read-out: % inhibition (mean)) was 2% and the inhibition at 2.5 µM (2.5 μM compound, oocyst number vs DMSO control, read-out: % inhibition (median)) was 19%. For the same compound, the inhibition at 2.5 µM (2.5 μM compound, vs DMSO control, read-out: % inhibition (prevalence)) was 17%, the “Median (oocysts)” value (2.5 µM) was 44 and the “Median I %” value (2.5 µM) was 19%. The Prevalence % (2.5 µM) was 83%, the “Prevalence I %” value (2.5 µM) was 17% and the “% inhibition (mean)” value (2.5 μM, single experiments) was 9%. For the same compound, the “% inhibition (median)” value (2.5 μM, single experiments) was 30%, the “Mean oocyst # excluding zeros (Range)” value (2.5 μM, single experiments) was 47 (0-92) and 55 (0-123) and 64 (0-156) and the “Median oocyst #” value (2.5 μM, single experiments) was 40 and 48. The inhibition at 2.5 µM [5] was 10%, the inhibition at 2.5 µM [6] was 26% and the “Median oocyst #” value (5 μM compound) was 32. For the same compound, the “Mean oocyst # excluding zeros (Range)” value [7] was 49 (0-108), the Prevalence [8] was 71 and the inhibition at 5 µM (5 μM compound, oocyst number vs DMSO control, read-out: % inhibition (mean)) was 6%. The inhibition at 5 µM (5 μM compound, oocyst number vs DMSO control, read-out: % inhibition (median)) was 41%, the inhibition at 5 µM (5 μM compound, vs DMSO control, read-out: % inhibition (prevalence)) was 28% and the “Median (oocysts)” value (5 µM) was 32. The “Median I %” value (5 µM) was 41%, the Prevalence % (5 µM) was 71% and the “Prevalence I %” value (5 µM) was 28%. The “Mean oocyst # excluding zeros (Range)” value (5 μM, single experiments) was 45 (0-108) and 52 (0-107) and 70 (0-144), the inhibition at 5 µM [9] was 15% and the “Median oocyst #” value (10 μM compound) was 35. The “Mean oocyst # excluding zeros (Range)” value [10] was 44 (0-128), the Prevalence [11] was 82 and the inhibition at 10 µM [12] was 15%. For the same compound, the inhibition at 10 µM [13] was 18%, the “Median (oocysts)” value (10 µM) was 35 and the “Median I %” value (10 µM) was 36%. For the same compound, the Prevalence % (10 µM) was 82%, the “Prevalence I %” value (10 µM) was 18% and the “% inhibition (prevalence)” value (10 μM, single experiments) was 45%. For the same compound, the “Mean oocyst # excluding zeros (Range)” value (10 μM, single experiments) was 37 (0-102) and 50 (0-128) and 59 (0-146), the “Median oocyst #” value (10 μM, single experiments) was 27 and 44 and the inhibition at 10 µM [14] was 46%. For the same compound, the median inhibition percentage (1 to 10 µM) was “below 50%”, the prevalence inhibition percentage (1 to 10 µM) was “below 50%” and the oocyst formation inhibition (1 to 10 µM) was “inhibited midgut oocyst formation in a dose-dependent manner”.

In the case of `COc1cccc(/C=N/NC(=O)c2cc(-c3ccccc3)nc3ccccc23)c1O` [CB-58], the “Median oocyst #” value (1 μM compound) is reported as 6, the “Mean oocyst # excluding zeros (Range)” value [1] is reported as 19 (0-95) and the Prevalence [2] is reported as 76. The “Median (oocysts)” value (1 µM) was 6, the Prevalence % (1 µM) was 75% and the “% inhibition (prevalence)” value (1 μM, single experiments) was 1%. For the same compound, the Prevalence (1 μM, single experiments) was 69 and 82 and 83, the inhibition at 1 µM [15] was 5% and the inhibition at 1 µM [16] was 23%. For the same compound, the “Median oocyst #” value (2.5 μM compound) was 7, the “Mean oocyst # excluding zeros (Range)” value [3] was 26 (0-103) and the Prevalence [4] was 72. The “Median (oocysts)” value (2.5 µM) was 7, the Prevalence % (2.5 µM) was 72% and the “% inhibition (prevalence)” value (2.5 μM, single experiments) was 1%. For the same compound, the Prevalence (2.5 μM, single experiments) was 66 and 79 and 87, the “Median oocyst #” value (5 μM compound) was 6 and the “Mean oocyst # excluding zeros (Range)” value [7] was 14 (0-70). For the same compound, the Prevalence [8] was 87, the “Median (oocysts)” value (5 µM) was 6 and the Prevalence % (5 µM) was 87%. The Prevalence (5 μM, single experiments) was 96 and 83 and 69, the inhibition at 5 µM [9] was 10% and the inhibition at 5 µM [17] was 26%. For the same compound, the “Median oocyst #” value (10 μM compound) was 3, the “Mean oocyst # excluding zeros (Range)” value [10] was 17 (0-93) and the Prevalence [11] was 57. The inhibition at 10 µM [12] was 10%, the inhibition at 10 µM (10 μM compound, oocyst number vs DMSO control, read-out: % inhibition (median)) was 50% and the inhibition at 10 µM [13] was 19%. The “Median (oocysts)” value (10 µM) was 3, the “Median I %” value (10 µM) was 50% and the Prevalence % (10 µM) was 57%. The “Prevalence I %” value (10 µM) was 19%, the “% inhibition (prevalence)” value (10 μM, single experiments) was 15% and the inhibition at 10 µM [18] was 30%. For the same compound, the inhibition at 10 µM [14] was 30% and the oocyst formation inhibition (1 to 10 µM) was “did not inhibit oocyst formation”.

For `O=C(N/N=C/c1cc(Br)ccc1O)/C(=C/C=C/c1ccccc1)NC(=O)c1ccccc1` [CB-50], the “Median oocyst #” value (1 μM compound) was 8, the “Mean oocyst # excluding zeros (Range)” value [1] was 18 (0-95) and the Prevalence [2] was 81. The “Median (oocysts)” value (1 µM) was 8, the Prevalence % (1 µM) was 82% and the Prevalence (1 μM, single experiments) was 73 and 91 and 90. The inhibition at 1 µM [15] was 48%, the inhibition at 1 µM [16] was 48% and the “Median oocyst #” value (2.5 μM compound) was 9. The “Mean oocyst # excluding zeros (Range)” value [3] was 26 (0-103), the Prevalence [4] was 74 and the “Median (oocysts)” value (2.5 µM) was 9. The Prevalence % (2.5 µM) was 74%, the Prevalence (2.5 μM, single experiments) was 68 and 82 and 83 and the inhibition at 2.5 µM [5] was 38%. The inhibition at 2.5 µM [6] was 48%, the inhibition at 2.5 µM (2.5 μM, single experiments, read-out: % inhibition (prevalence)) was 5% and the “Median oocyst #” value (5 μM compound) was 7. For the same compound, the “Mean oocyst # excluding zeros (Range)” value [7] was 15 (0-67), the Prevalence [8] was 89 and the “Median (oocysts)” value (5 µM) was 7. The Prevalence % (5 µM) was 89%, the Prevalence (5 μM, single experiments) was 87 and 90 and 92 and the inhibition at 5 µM [9] was 19%. The inhibition at 5 µM [17] was 3%, the “Median oocyst #” value (10 μM compound) was 7 and the “Mean oocyst # excluding zeros (Range)” value [10] was 18 (0-74). The Prevalence [11] was 74, the “Median (oocysts)” value (10 µM) was 7 and the Prevalence % (10 µM) was 74%. For the same compound, the Prevalence (10 μM, single experiments) was 65 and 88 and 89, the inhibition at 10 µM [18] was 52% and the inhibition at 10 µM (10 μM, single experiments, read-out: % inhibition (median)) was 61%. The oocyst formation inhibition (1 to 10 µM) was “did not inhibit oocyst formation”.
